The record followed here is patent US10881703B2, “Composition for use in the treatment of intestinal alterations” (priority 2016, dated 2021).

The assay deals with THP-1 cells and intestinal epithelial cells (CacoGoblet). As to the kind of experiment: Monocyte-epithelial cell adhesion assay (THP-1 cells on CacoGoblet). It counts as cell-based, human. To be noted: inflamed mucosa (IL1 beta 10 ng/ml overnight), 24 hours treatment. As to the method:
The CacoGoblet cells were pre-treated with 10 ng/ml of IL1 beta overnight. […] A parallel treatment was carried out with the reference molecule etacortilen (Dexamethasone Sodium Phosphate) at 0.15% in order to study the overcoming of the inflammatory state of the mucosa. […] Once the non-adherent cells had been removed, the residual surface fluorescence of the THP-1 cells was evaluated under a microscope. The anti-inflammatory activity of the various compounds at the intestinal level was assessed in a static assay using the reduction in the cellular adhesion of THP-1 on CacoGoblet as an endpoint parameter. • 2) Ability of Cranberries to Prevent Adhesion of E. Coli to Mucosa The CacoGoblet cells were treated overnight with IL-1beta, the pro-inflammatory cytokine, prior to the adhesion assay in order to create inflamed mucosa. The treated monolayers were then treated with the products for 24 hours. The marked THP-1 cells were added on top of the CacoGoblet in each well. The THP-1 cells were marked with the fluorescent dye chloromethylfluorescein diacetate (CMFDA; Invitrogen). After incubation, the monolayer was gently washed to remove the non-adherent THP-1 cells. The adherent cells marked with the fluorescent dye were viewed under a fluorescence microscope. […]

With `C[C@@H]1C[C@H]2[C@@H]3CCC4=CC(=O)C=C[C@]4(C)[C@@]3(F)[C@@H](O)C[C@]2(C)[C@@]1(O)C(=O)COP(=O)(O)O` [etacortilen, Dexamethasone Sodium Phosphate], the “adhesion of THP-1 cells” value is recorded as “significant decrease in the adhesion of THP-1 cells”.
